Key:
HO-2 (rat brain) = molecular target: T1, HO-2 (rat brain) (Rattus norvegicus, UniProt P23711); test: HO enzymatic activity in rat brain microsomal fraction (CO formed from methemalbumin, gas chromatography); format: biochemical; details: rat brain microsomes; average ± standard deviation of replicate experiments; hydrochloride; read-out: IC50 HO-2 (rat brain)/μM
T1 construct: brain microsomes were used as a source of HO-2; from tissue; host or cells: brain microsomal fraction of adult male Sprague-Dawley rats
T1 sequence (P23711 1-315): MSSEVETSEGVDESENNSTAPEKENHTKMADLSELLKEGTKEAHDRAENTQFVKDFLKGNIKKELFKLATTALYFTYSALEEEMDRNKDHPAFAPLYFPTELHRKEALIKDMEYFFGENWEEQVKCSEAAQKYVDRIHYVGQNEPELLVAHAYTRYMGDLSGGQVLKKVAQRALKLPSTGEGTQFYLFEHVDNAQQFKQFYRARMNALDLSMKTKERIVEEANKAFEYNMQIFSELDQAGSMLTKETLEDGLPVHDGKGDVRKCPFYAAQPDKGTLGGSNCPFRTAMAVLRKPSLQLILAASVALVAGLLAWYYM

HO-1 (rat spleen) = molecular target: T2, HO-1 (rat spleen) (Rattus norvegicus, UniProt P06762); test: HO enzymatic activity in rat spleen microsomal fraction (CO formed from methemalbumin, gas chromatography); format: biochemical; details: rat spleen microsomes; average ± standard deviation of replicate experiments; read-out: IC50 HO-1 (rat spleen)/μM
T2 construct: Spleen microsomes were used as a source of HO-1; from tissue; host or cells: spleen microsomal fraction of adult male Sprague-Dawley rats
T2 sequence (P06762 1-289): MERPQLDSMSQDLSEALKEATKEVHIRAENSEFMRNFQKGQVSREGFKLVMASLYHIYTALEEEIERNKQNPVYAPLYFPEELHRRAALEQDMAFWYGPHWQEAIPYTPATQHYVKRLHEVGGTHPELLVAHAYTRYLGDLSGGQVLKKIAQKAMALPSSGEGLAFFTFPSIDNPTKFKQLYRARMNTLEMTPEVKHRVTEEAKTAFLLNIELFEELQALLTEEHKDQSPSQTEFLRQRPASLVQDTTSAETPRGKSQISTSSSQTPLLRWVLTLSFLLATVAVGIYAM

[1] = tested on: human metastatic prostate cancer PC-3M cells; test: Orthotopic PC-3M prostate cancer model in SCID mice; format: in vivo
Source text: PC-3 & PC-3M (human prostate carcinoma). The PC-3 human prostate cancer cell line was originally obtained from the American Type Culture Collection (Rockville, Md.). The PC-3M cell line was kindly provided by Dr. Issac (MD Anderson Cancer Center). This cell variant was derived from a liver metastasis produced by the parental PC-3 cells growing in the spleen of a nude mouse [Pettaway C A, Pathak S, Greene G, et al. Selection of highly metastatic variants of different human prostate carcinomas utilizing orthotopic implantation in nude mice.
Male SCID mice were housed in laminar flow under specific pathogen-free conditions and used at 8-9 weeks of age. Animals were maintained in the LDI facilities approved by the Laboratory Animal Care in accordance with current Canadian regulations and standards for the use of animals for research.
Mice were anesthesized with isofluorane given by inhalation and placed in a supine position. […] A low midline incision was made and the prostate was exposed. Fifty microliters of HBSS containing 1×10^6 cells was injected into a lateral lobe of the prostate. The wound was closed with surgical metal clips in two layers, the muscle layer first and then the skin layer using stainless steel clips (autoclips: 9 mm; Clay Adams Inc., Parsippany, N.J.). […] Control groups received the vehicle alone. Taxol™ was given either ip or iv as indicated.
Primary tumors in the prostate were excised, measured, and weighed. When applicable, immunohistochemistry and H&E staining were conducted on one part of the tumor, fixed in formalin and embedded in paraffin or OCT compound (Miles Inc., Elkhart, Ind.); the later was rapidly frozen in liquid nitrogen, and stored at −70° C. Macroscopically enlarged regional lymph nodes were harvested and the presence of metastatic disease was confirmed by histology.
The in vivo data was analyzed using the Mann-Whitney U test.

[2] = QC-56 30 mg/kg intraperitoneally daily for 12 days, Taxol 10 mg/kg i.p. 3 cycles
[3] = QC-56 30 mg/kg intravenously daily for 12 days, Taxol 10 mg/kg i.p. 3 cycles

Brc1ccc(CCC2(Cn3ccnc3)OCCO2)cc1.Cl [QC-56, 1-((2-(2-(4-Bromophenyl)ethyl)-1,3-dioxolan-2-yl)methyl)-1H-imidazole hydrochloride]
IC50 (HO-2 (rat brain)): ≥ 100 µM | IC50 (HO-1 (rat spleen)): 1.9 ± 0.2 µM | inhibition of tumor growth [1, 2]: 34% | reduction in microscopic lymph node metastases [1, 2]: 59% | inhibition of tumor growth [1, 3]: 58% | reduction in microscopic lymph node metastases [1, 3]: 76% | reduction in microscopic lymph node metastases ([1]; QC-56 40 mg/kg daily for 24 days, Taxol 10 mg/kg, 4 cycles): 48% | inhibition of tumor growth compared to untreated mice ([1]; QC-56 40 mg/kg daily for 24 days, Taxol 10 mg/kg, 4 cycles, 3 administrations per cycle): 35%

— patent US20140155445A1, “Compounds and Methods for Treating Cancer and Diseases of the Central Nervous System” (Osta Biotechnologies Inc., priority 2007, published 2014)
